Columns and labels:
[1] = test system: rat models of suppressed hematopoietic function by 5-FU administration; assay: Ratio of segmented neutrophils in rat models of suppressed hematopoietic function by 5-FU (Example 27); assay type: in vivo; settings: 5-FU rats
Description: (1) The animals used are the same as in Example 26. The keeping condition was a temperature of 23±2° C. and a humidity of 55±15%.
(2) The creation of the 5-FU administration model, the administration of test substances, and the blood collection schedule were carried out in a similar manner to Example 26. Hematological tests were carried out using the Toa multi-channel automatic cell counter K-4500 or Toa Sysmex CC-180A automatic cell counter, differential counts of white blood cells were carried out by May-Giemsa stain followed by microscopic examination, reticulocytes were counted by the Brecher method.
(3) Using the same schedule as in Example 26, the negative control group that only received the fat emulsion after 5-FU administration, the group that received the glutathione derivative of Example 4 at 30 mg/kg-body weight/day as a test substance together with the fat emulsion, the group that similarly received the glutathione derivative of Example 1 at 10 or 30 mg/kg-body weight/day, and the group that received the glutathione derivative of Example 7 at 30 or 60 mg/kg-body weight/day were studied.

[2] = test system: rabbit liver esterase; assay: Decomposition of glutathione derivatives by rabbit liver esterase (physiological stability); assay type: in vitro ADME; settings: BSA/D-PBS pH 7.4, 196-244 μg/ml
Description: (§1) (1) Bovine serum albumin (hereinafter referred to as BSA), Dulbecco's phosphate buffered saline (hereinafter referred to as D-PBS), swine liver esterase, and rabbit liver esterase were purchased from Sigma, 6-week old male SD rats were purchased from Nippon SLC, and 12-week old or older male Japanese white rabbits were purchased from Ichikawaya. On the day of the incubation experiment described below, blood was drawn from the animals in the presence of heparin, and plasma was separated therefrom for use. Human plasma was obtained from normal healthy males after obtaining their consent.
(§2) (2) The glutathione derivatives described in the Examples and Comparative Examples of the present invention were incubated for a fixed time in an enzyme solution having the following composition. Acetonitrile was added to the reaction mixture to inactivate the enzyme thereby to stop the reaction. The concentration of the glutathione derivatives in the deproteinized supernatant was measured by HPLC. For each time point of the esterase enzyme experiment, the mean values from two measurement or more were determined, and for the rats and rabbits the mean values of plasma samples from three individuals were determined. For some of the experiment data, changes with time of percentages relative to initial concentration of the glutathione derivative are shown in FIGS. 2 to 4.
(§3) Swine liver esterase and rabbit liver esterase experiment
(§4) 30 mg-BSA/ml-D-PBS (pH 7.4): 36 to 45 parts
(§5) Swine or rabbit liver esterase/D-PBS: 4-5 parts
(§6) 10 mg-glutathione derivative/ml-ethanol: one part (the final concentration in the reaction mixture is 196-244 μg/ml)

[3] = test system: swine liver esterase; assay: Decomposition of glutathione derivatives by swine liver esterase (physiological stability); assay type: in vitro ADME; settings: BSA/D-PBS pH 7.4, 196-244 μg/ml
Description: as §1, §2, §3, §4, §5, §6

[4] = Pharmacokinetics after intravenous administration to rabbits, 2-compartment model (Example 25); assay type: in vivo, rabbit; settings: iv auricular vein 2 ml/kg, fat emulsion (Comparative Ex. 1: HPCD/glucose solution)
From the text: For the glutathione derivative of the present invention having a long-chain ester having 12 carbons or more and the glutathione derivatives of the conventional technology of Comparative Examples 1 and 2, kinetics in the blood were compared in rabbits that are a species having allow esterase activity in the blood.
(1) Male Japanese white rabbits, 12-week old or older, were purchased from Ichikawaya, and those rabbits that became 15-week old or older and whose body weight reached about 3 kg were used for the experiment. During the period up to the experiment, the animals were allowed free access to the animal feed and drinking water and were kept at a temperature of 24±2° C. and a humidity of 55±5%.
(2) The glutathione derivative having a long-chain ester of 12 carbons or more and the glutathione derivative of Comparative Example 2 were prepared at 20-200 mg/ml in a mixture of ethanol or ethanol:benzyl alcohol, which was mixed with the fat emulsion just prior to use, and was filtered with a 1.2 μm filter to obtain a liquid for intravenous administration. On the other hand, the glutathione derivative of Comparative Example 1 was dissolved in an aqueous solution of 6%-hydroxypropyl-β-cyclodextrin/5%-glucose at 15 mg/ml to obtain an administration liquid.
(3) The administration liquid of the glutathione derivative obtained in (2) at a dose of 2 ml/kg was rapidly infused into the left auricular vein of the rabbits under no anesthesia and under restraint at a rate of 1 ml/min. Each glutathione derivative was given to three or more rabbits. At 5, 10, 15, 30, 60, 120, and 240 minutes after the completion of the administration, 1 ml of the blood was drawn from the right auricular vein in the presence of heparin, which was immediately cooled on ice. Plasma was obtained by centrifuging the blood, 1-2 volume parts of acetonitrile was added to deproteinize the supernatant, which was filtered by a 0.5 μm filter. The supernatant of the filtrate was quantitated by HPLC.

[5] = Stability in rabbit plasma; settings: heparinized plasma, 250-323 μg/ml
Description: as §1, §2
Rat, rabbit, and human plasma
Heparinized plasma: 30 to 40 parts
10 mg-glutathione derivative/ml-ethanol: one part (the final concentration in the reaction mixture is 250-323 μg/ml)

[6] = test system: rat models of suppressed hematopoietic function by 5-FU administration; assay: Recovery of neutrophil counts in rat models of suppressed hematopoietic function by 5-FU (Example 26); assay type: in vivo; settings: 5-FU rats; 10 μg/kg-body weight/day, days 2-10; day 4 and from day 8
From the text: Regarding the effect of promoting the recovery of neutrophil counts in rat models of suppressed hematopoietic function by 5-fuluorouracil administration, statistical significance was compared to the control group to compare the pharmaceutical composition containing Example 4 of the present invention as an active ingredient with the pharmaceutical composition of the conventional technology of Comparative Example 1 and granulocyte colony-stimulating factor (G-CSF).
(1) Animals used and the keeping condition: Male SD rats, 6-week old, purchased from Nippon SLC were used. The animal feed (manufactured by Oriental Yeast Co., Ltd.) and drinking water (well water treated with 0.4±0.2 ppm hypochlorous acid) were given ad libitum during the period of the experiment. The animals were housed in a hanging-type rat cage (manufactured by Nippon Cage K.K.) and kept at a temperature of 24±2° C. and a humidity of 55±5%.
(2) Creation of rat models of suppressed hematopoietic function by 5-FU administration; Creation of rat models of suppressed hematopoietic function by 5-FU (Kyowa Hakko Kogyo Co. Ltd.) administration was carried out based on the method of Akamatsu et al. (Yakuri to Chiryo(Pharmacology and Therapy), 18. (Suppl. 9), 317-356 (1990)). Thus, on the first day of the experiment, 5-FU at 50 mg/kg-body weight (dosage volume is 1 ml/kg-body weight) or the same amount of physiological saline (manufactured by Fuso Pharmaceuticals Industries, Ltd.) was intraperitoneally administered to the rats described in (1). On days 4, and 7-12, blood was drawn from the jugular vein and the EDTA-2K-treated blood was obtained. The blood was used to determine the neutrophil count using a general chemistry test instrument (Technicon H-1E, manufactured by Bayer-Sankyo K.K.) and the ratio of reticulocytes using a reticulocyte determination instrument (EPICS, XL-MCL, manufactured by Coulter K.K.). Blood was also drawn on day 1 of the experiment, and the values determined for the blood were used as the pre-administration values.
In the physiological saline administration group, no changes in neutrophil count were observed throughout the experiment period, whereas in the 5-FU administration group there was a reduction in neutrophil count with the lowest value observed on day 8 of the experiment, and the neutrophil count was recovered to the value before 5-FU administration or higher on day 10 of the experiment or after. The above results confirmed that rat models of suppressed hematopoietic function can be created by a single intraperitoneal administration of 5-FU at 50 mg/kg-body weight.
(3) Evaluation of Example 4 and Comparative Example 1 in the above model; To the model described in (2), the glutathione derivative of Example 4 combined with the fat emulsion at 10 to 30 mg/kg-body weight/day or the glutathione derivative of Comparative Example 1 dissolved in a physiological saline containing 2.5% hydroxypropyl-β-cyclodextrin at 50 mg/kg-body weight/day was repeatedly administered into the tail vein for 9 days from day 2 to 10 of the experiment. The recombinant human G-CSF formulation (hereinafter referred to as G-CSF, manufactured by Chugai Pharmaceutical Co., Ltd.) as the positive control at 10 μg/kg-body weight/day and the empty fat emulsion as the negative control were administered in a similar manner. […]

[7] = 30 mg/kg-body weight/day with fat emulsion

## CCCCCCCCCCCCCCCCCCOC(=O)[C@@H](N)CCC(=O)N[C@@H](CSCc1ccccc1)C(=O)N[C@@H](C(=O)OCC)c1ccccc1.Cl [Example 1, Glu(Cys(Bzl)-D-Phg-OEt)-O(Octadecyl)hydrochloride]
[1]; 10 mg/kg-body weight/day with fat emulsion
  Recovery of segmented neutrophil counts relative to the negative control: tendency of promoting the recovery of segmented neutrophil counts
[1]; [7]
  Recovery of segmented neutrophil counts relative to the negative control: tendency of promoting the recovery of segmented neutrophil counts
[2]
  Decomposition rate constant by rabbit liver esterase: 0.300 10^−4/unit/min
[3]
  Decomposition rate constant by swine liver esterase: 0.0901 10^−4/unit/min
[4]
  Clearance per body weight: 0.5 mL/min/kg
  Distribution volume per body weight of the central compartment: 0.06 L/kg
[5]
  Half life in rabbit plasma: 408.57 h

## CCCCCCCCCCCCCCOC(=O)[C@@H](N)CCC(=O)N[C@@H](CSCc1ccccc1)C(=O)N[C@@H](C(=O)OCC)c1ccccc1.Cl [Example 6, Glu(Cys(Bzl)-D-Phg-OEt)-O(Tetradecyl)hydrochloride]
[2]
  Decomposition rate constant by rabbit liver esterase: 5.11 10^−4/unit/min
[3]
  Decomposition rate constant by swine liver esterase: 2.61 10^−4/unit/min
[4]
  Clearance per body weight: 4.83 mL/min/kg
  Distribution volume per body weight of the central compartment: 0.08 L/kg
[5]
  Half life in rabbit plasma: 18.07 h

## CCCCCCCCCCCCOC(=O)[C@@H](N)CCC(=O)N[C@@H](CSCc1ccccc1)C(=O)N[C@@H](C(=O)OCC)c1ccccc1.Cl [Example 7, Glu(Cys(Bzl)-D-Phg-OEt)-O(Dodecyl)hydrochloride]
[1]; [7]
  Recovery of segmented neutrophil counts relative to the negative control: no changes relative to the negative control
[1]; 60 mg/kg-body weight/day with fat emulsion, days 11 and 12
  Recovery of neutrophil counts relative to the negative control: tendency of promoting the recovery of neutrophil counts
[2]
  Decomposition rate constant by rabbit liver esterase: 21.1 10^−4/unit/min
[3]
  Decomposition rate constant by swine liver esterase: 15.2 10^−4/unit/min
[4]
  Clearance per body weight: 47.5 mL/min/kg
  Distribution volume per body weight of the central compartment: 0.47 L/kg
[5]
  Half life in rabbit plasma: 5.38 h

B1: G-CSF: recombinant human G-CSF formulation, manufactured by Chugai Pharmaceutical Co., Ltd., positive control (protein, UniProt P09919 31-207, looked up)
Granulocyte …: TPLGPASSLPQSFLLKCLEQVRKIQGDGAALQEKLVSECATYKLCHPEELVLLGHSLGIPWAPLSSCPSQALQLAGCLSQLHSGLFLYQGLLQALEGISPELGPTLDTLQLDVADFATTIWQQMEELGMAPALQPTQGAMPAFASAFQRRAGGVLVASHLQSFLEVSYRVLRHLAQP
[6]
  Neutrophil counts relative to the negative control group: statistically significant increase in neutrophil counts

From US6627732B1, “Glutathione derivatives and their dosage forms” (Teijin Limited, priority 1998, dated 2003)
